Results as given in US8414950B2, “High-purity rebaudioside D and low-calorie table top tablet containing the same” (PureCircle Sdn Bhd, priority 2009, dated 2013).
“Also recorded” adds a separate entry of the source. Where a SMILES comes first, the peptide text is derived from it.

Key:
[1] = cited from earlier work; for Sweetness power: standard sweetening power, saccharose = 1; for Relative sweetness: Table 2, relative to sucrose; for Sweetness potency, times higher than sucrose: related art
[2] = Table 2 and related-art text; cited from earlier work
[3] = Table 2; cited from earlier work
[4] = Heat and pH stability; format: physicochemical
[5] = Solubility in water; format: physicochemical; details: high purity Rebaudioside D of the invention; increases with temperature
Description: Solubility in water is around 0.2% which is increasing with increase in temperature. It precipitates again upon cooling the solution. Highly soluble during chromatographic separation stage and before crystallizing.

[6] = Quality of taste (sensory attributes)
Description: Rebaudioside D is isolated and extracted, along with other steviol glycosides, from the Stevia rebaudiana Bertoni plant (“Stevia”), which is commercially cultivated in Japan, Taiwan, Malaysia, South Korea, China, Israel, India, Brazil, Australia, and Paraguay.

[7] = Sweetness power / relative sweetness compared with sucrose; details: high purity Rebaudioside D of the invention, compared to 10% sucrose solution
[8] = Solubility in organic solvents; format: physicochemical
Description: Soluble in diluted solutions of methanol, ethanol, n-propanol, and isopropanol.
Insoluble in acetone, benzene, chloroform, and ether.

| Compound | Sweetness power [1] | Quality of taste [2] | Relative sweetness [1] | Solubility in water, % [3] [%] | also measured |
| --- | --- | --- | --- | --- | --- |
| CC1=CC(=O)NS(=O)(=O)O1 [Acesulfame-K] | 200 |  |  |  |  |
| C=C1C[C@@]23CC[C@H]4[C@@](C)(CCC[C@@]4(C)C(=O)O[C@@H]4O[C@H](CO)[C@@H](O)[C@H](O)[C@H]4O[C@@H]4O[C@H](CO)[C@@H](O)[C@H](O)[C@H]4O)[C@@H]2CC[C@]1(O[C@@H]1O[C@H](CO)[C@@H](O)[C@H](O)[C@H]1O[C@@H]1O[C@H](CO)[C@@H](O)[C@H](O)[C@H]1O)C3 [Rebaudioside E] |  | Like sucrose | 170 | 1.70 |  |
| Thaumatin | 3000 |  |  |  |  |
| C=C1C[C@@]23CC[C@H]4[C@@](C)(CCC[C@@]4(C)C(=O)O)[C@@H]2CC[C@]1(O)C3 [Steviol] |  | Very bitter |  |  |  |
| C[C@@H](NC(=O)[C@@H](N)CC(=O)O)C(=O)NC1C(C)(C)SC1(C)C [Alitame] | 2000 |  |  |  |  |
| OC[C@H]1O[C@H](O[C@]2(CCl)O[C@H](CCl)[C@@H](O)[C@@H]2O)[C@H](O)[C@@H](O)[C@H]1Cl [Sucralose] | 600 |  |  |  |  |
| Rebaudioside B |  | Bitter | 150 | 0.10 |  |
| C=C1C[C@@]23CC[C@H]4[C@@](C)(CCC[C@@]4(C)C(=O)O[C@@H]4O[C@H](CO)[C@@H](O)[C@H](O)[C@H]4O)[C@@H]2CC[C@]1(O[C@@H]1O[C@H](CO)[C@@H](O)[C@H](O)[C@H]1O)C3 [Rubusoside] |  | Very bitter | 110 |  |  |
| C=C1C[C@@]23CC[C@H]4[C@@](C)(CCC[C@@]4(C)C(=O)O[C@@H]4O[C@H](CO)[C@@H](O)[C@H](O)[C@H]4O)[C@@H]2CC[C@]1(O[C@@H]1O[C@H](CO)[C@@H](O)[C@H](O[C@@H]2O[C@H](CO)[C@@H](O)[C@H](O)[C@H]2O)[C@H]1O[C@@H]1O[C@H](CO)[C@@H](O)[C@H](O)[C@H]1O)C3 [Rebaudioside A] | 450 | most favorable sensory attributes of the four major steviol glycosides; also recorded: Less Bitter | 200-400 | 0.80 |  |
| OC[C@H]1O[C@@](CO)(O[C@H]2O[C@H](CO)[C@@H](O)[C@H](O)[C@H]2O)[C@@H](O)[C@@H]1O [Saccharose] | 1 |  |  |  |  |
| C=C1C[C@@]23CC[C@H]4[C@@](C)(CCC[C@@]4(C)C(=O)O[C@@H]4O[C@H](CO)[C@@H](O)[C@H](O)[C@H]4O)[C@@H]2CC[C@]1(O[C@@H]1O[C@H](CO)[C@@H](O)[C@H](O)[C@H]1O[C@@H]1O[C@@H](C)[C@H](O)[C@@H](O)[C@H]1O)C3 [Dulcoside A] |  | Very bitter | 30 | 0.58 | Sweetness potency, times higher than sucrose [1]: around 30 times |
| COC(=O)[C@H](Cc1ccccc1)NC(=O)[C@@H](N)CC(=O)O [Aspartame] (H-Asp-Phe-OMe) | 200 |  |  |  |  |
| C=C1C[C@@]23CC[C@H]4[C@@](C)(CCC[C@@]4(C)C(=O)O)[C@@H]2CC[C@]1(O[C@@H]1O[C@H](CO)[C@@H](O)[C@H](O)[C@H]1O[C@@H]1O[C@H](CO)[C@@H](O)[C@H](O)[C@H]1O)C3 [Steviolbioside] |  | Unpleasant | 90 | 0.03 |  |
| C=C1C[C@@]23CC[C@H]4[C@@](C)(CCC[C@@]4(C)C(=O)O[C@@H]4O[C@H](CO)[C@@H](O)[C@H](O)[C@H]4O[C@@H]4O[C@H](CO)[C@@H](O)[C@H](O)[C@H]4O)[C@@H]2CC[C@]1(O[C@@H]1O[C@H](CO)[C@@H](O)[C@H](O[C@@H]2O[C@H](CO)[C@@H](O)[C@H](O)[C@H]2O)[C@H]1O[C@@H]1O[C@H](CO)[C@@H](O)[C@H](O)[C@H]1O)C3 [Rebaudioside D] |  | Like sucrose | 220 | 1.00 | Heat and pH stability [4]: heat and pH-stable; Solubility in water [5]: around 0.2%; Bitterness and aftertaste / sensory properties ([6]; amongst the sweet diterpenoid glycosides of Stevia): the least bitter, and with the least persistent aftertaste; Bitterness and aftertaste / sensory properties ([6]; amongst the sweet diterpenoid glycosides of Stevia; listed as Rebaudioside 1)): excellent sensory properties; times sweeter than sugar [7]: 180-200 times; Solubility in non-alcohol organic solvents ([8]; acetone, benzene, chloroform, and ether): Insoluble; Solubility in diluted alcohols ([8]; diluted solutions of methanol, ethanol, n-propanol, and isopropanol): Soluble |
| Rebaudioside C |  | Bitter | 30 | 0.21 | Sweetness potency, times higher than sucrose [1]: around 30 times |
| O=C1NS(=O)(=O)c2ccccc21 [Saccharine] | 300 |  |  |  |  |
| CC1(C)[C@@H](O[C@H]2O[C@H](C(=O)O)[C@@H](O)[C@H](O)[C@H]2O[C@@H]2O[C@H](C(=O)O)[C@@H](O)[C@H](O)[C@H]2O)CC[C@]2(C)[C@H]3C(=O)C=C4[C@@H]5C[C@@](C)(C(=O)O)CC[C@]5(C)CC[C@@]4(C)[C@]3(C)CC[C@@H]12 [Glycyrrhizin] | 50 |  |  |  |  |
| C=C1C[C@@]23CC[C@H]4[C@@](C)(CCC[C@@]4(C)C(=O)O[C@@H]4O[C@H](CO)[C@@H](O)[C@H](O)[C@H]4O)[C@@H]2CC[C@]1(O[C@@H]1O[C@H](CO)[C@@H](O)[C@H](O)[C@H]1O[C@@H]1O[C@H](CO)[C@@H](O)[C@H](O)[C@H]1O)C3 [Stevioside] | 200 | Bitter | 210 | 0.13 | Sweetness potency, times higher than sucrose [1]: around 210 times |
| COc1ccc(CCC(=O)c2c(O)cc(O[C@@H]3O[C@H](CO)[C@@H](O)[C@H](O)[C@H]3O[C@@H]3O[C@@H](C)[C@H](O)[C@@H](O)[C@H]3O)cc2O)cc1O [NHDC, neohesperidin dihydrochalcone] | 1000 |  |  |  |  |
